Reference: patent publication US12257247B2 (Monte Rosa Therapeutics AG, priority 2023, dated 2025)
Where two headings read alike, the source gives them in different places.

Target: T1, VAV1 (Homo sapiens, UniProt P15498+Q96SW2)
T1 construct: A heterozygous VAV1 C-terminal HiBiT knock-in pool was generated at Monte Rosa Therapeutics from a clonal Jurkat cell; endogenous in cells; host or cells: Jurkat clone stably expressing LgBiT, homozygous GSPT1-G575N; heterozygous VAV1-HiBiT knock-in pool
Assay: VAV1 degradation activity, VAV1-HiBiT knock-in Jurkat luminescence assay (Example A, Table 1)
Format: cell-based
Settings: VAV1-HiBiT knock-in Jurkat cells, luminescence read at 6 and 24 hours; for Dmax: Jurkat
Experimental: Cells were plated at 10,000 cells per well using Multiflo (BioTek) or Multi Drop Combi (Thermo Fisher) in 384-well white solid bottom plates (Corning, 3570BC) in 25 ul volume in RPMI 1640 media (Thermo Fischer, 22400105) containing 10% FBS (Corning, 35-075-CV), 1% Penicillin/Streptomycin (ThermoFisher Scientific, 15140-122), and 1% Endurazine (Nano-Glo Endurazine Live Cell Substrate (Promega, N2571)). Cells were incubated for ˜16 hours at 37° C., 5% CO2. 25 nL of a compound at 10 μM were dosed into the plate using an Echo® 650 liquid handler (Labcyte). Cells were incubated at 37° C., 5% CO2 and signal was read at 6 and 24 hours after compound addition on a Pherastar FSX using “LUM plus” optic module.
Analysis was performed in Scinamic (Scinamic, Cambridge, MA). Luminescence response (R) was calculated by the formula: response=100*(S−N)/(P−N) where S is the signal of the well, N and P the mean negative and positive control values respectively of the same plate. The luminescence response was then fitted in Scinamic using a 3-parameter agonist logistic fit (hillslope=1, EC50>0, top/bottom unconstrained).

[1] = read-out: VAV1 DC50 (nM), class

Row | Dmax (read-out: VAV1 Dmax %) [%] | Dmax (read-out: VAV1 Dmax %, class) [%] | DC50 (read-out: VAV1 DC50) [nM] | DC50 [1] [nM] | VAV1 Dmax % [%] | SMILES
1 | 55 | < 60 | 6160 | > 1000 |  | O=C1CCC(c2c(F)ccc(-c3ccc(Cn4ccccc4=O)cc3)c2Cl)C(=O)N1 (stereo not shown) [Compound 143, 3-(2-chloro-4-fluoro-4′-((2-oxopyridin-1(2H)-yl)methyl)-[1,1′-biphenyl]-3-yl)piperidine-2,6-dione]
2 | 65.3 | 60 to 90 | 248 | 100 to 1000 |  | Cn1ccc(COc2ccc(-c3ccc(F)c(C4CCC(=O)NC4=O)c3Cl)cc2)n1 (stereo not shown) [Compound 144, 3-(2-chloro-4-fluoro-4′-((1-methyl-1H-pyrazol-3-yl)methoxy)-[1,1′-biphenyl]-3-yl)piperidine-2,6-dione]
3 | 55.5 | < 60 | 13800 | > 1000 |  | Cn1ccc(COc2ccc(-c3ccc(Cl)c(C4CCC(=O)NC4=O)c3F)cc2)n1 (stereo not shown) [Compound 145, 3-(4-chloro-2-fluoro-4′-((1-methyl-1H-pyrazol-3-yl)methoxy)-[1,1′-biphenyl]-3-yl)piperidine-2,6-dione]
4 | 81.5 | 60 to 90 | 8400 | > 1000 |  | Cn1ccc(COc2ccc(-c3ccc(Cl)c(C4CCC(=O)NC4=O)c3Cl)cc2)n1 (stereo not shown) [Compound 146, 3-(2,4-dichloro-4′-((1-methyl-1H-pyrazol-3-yl)methoxy)-[1,1′-biphenyl]-3-yl)piperidine-2,6-dione]
5 | 33.3 | < 60 | ≥ 10000 | > 1000 | 33.28 | O=C1CCC(c2c(F)ccc(-c3ccc(Cn4ccccc4=O)cc3)c2F)C(=O)N1 (stereo not shown) [Compound 147, 3-(2,4-difluoro-4′-((2-oxopyridin-1(2H)-yl)methyl)-[1,1′-biphenyl]-3-yl)piperidine-2,6-dione]
6 | 21.4 | < 60 | ≥ 10000 | > 1000 |  | COc1ccc(-c2ccc(F)c(C3CCC(=O)NC3=O)c2F)cc1C (stereo not shown) [Compound 148]
7 | 89.6 | 60 to 90 | 91.5 | ≤ 100 |  | O=C1CCC(c2cccc(-c3ccc(Cn4ccccc4=O)cc3)c2F)C(=O)N1 (stereo not shown) [Compound 149, 3-(2-fluoro-4′-((2-oxopyridin-1(2H)-yl)methyl)-[1,1′-biphenyl]-3-yl)piperidine-2,6-dione]
8 | 84.2 | 60 to 90 | 48 | ≤ 100 |  | Cn1ccc(COc2ccc(-c3cccc(C4CCC(=O)NC4=O)c3F)cc2)n1 (stereo not shown) [Compound 150, 3-(2-fluoro-4′-((1-methyl-1H-pyrazol-3-yl)methoxy)-[1,1′-biphenyl]-3-yl)piperidine-2,6-dione]
9 | 39.8 | < 60 | ≥ 10000 | > 1000 |  | Cn1ccc(COc2ccc(-c3cccc(C4CCC(=O)NC4=O)c3)cc2)n1 (stereo not shown) [Compound 151, 3-(4′-((1-methyl-1H-pyrazol-3-yl)methoxy)-[1,1′-biphenyl]-3-yl)piperidine-2,6-dione]
10 | 8.11 | < 60 | ≥ 10000 | > 1000 |  | Cc1cc(OCc2ccn(C)n2)ccc1-c1ccc(Cl)c(C2CCC(=O)NC2=O)c1 (stereo not shown) [Compound 152]
11 | 1.26 | < 60 | ≥ 10000 | > 1000 |  | Cn1ccc(COc2ccc(-c3ccc(Cl)c(C4CCC(=O)NC4=O)c3)c(Cl)c2)n1 (stereo not shown) [Compound 153, 3-(2′,4-dichloro-4′-((1-methyl-1H-pyrazol-3-yl)methoxy)-[1,1′-biphenyl]-3-yl)piperidine-2,6-dione]
12 | 97 | > 90 | 18.7 | ≤ 100 |  | Cn1ccc(COc2ccc(-c3cccc(C4CCC(=O)NC4=O)c3Cl)cc2)n1 (stereo not shown) [Compound 154, 3-(2-chloro-4′-((1-methyl-1H-pyrazol-3-yl)methoxy)-[1,1′-biphenyl]-3-yl)piperidine-2,6-dione]
13 | 92.7 | > 90 | 14.9 | ≤ 100 |  | Cc1cc(-c2cccc(C3CCC(=O)NC3=O)c2Cl)ccc1OCCN1CCOCC1 (stereo not shown) [Compound 155, 3-(2-chloro-3′-methyl-4′-(2-morpholinoethoxy)-[1,1′-biphenyl]-3-yl)piperidine-2,6-dione]
14 | 92 | > 90 | 26 | ≤ 100 |  | O=C1CCC(c2cccc(-c3ccc(Cn4ccccc4=O)cc3)c2Cl)C(=O)N1 (stereo not shown) [Compound 156, 3-(2-chloro-4′-((2-oxopyridin-1(2H)-yl)methyl)-[1,1′-biphenyl]-3-yl)piperidine-2,6-dione]
15 | 20 | < 60 | ≥ 10000 | > 1000 |  | Cn1ccc(COc2ccc(-c3cc(C#N)cc(C4CCC(=O)NC4=O)c3Cl)cc2)n1 (stereo not shown) [Compound 157]
16 | 81.7 | 60 to 90 | 74.3 | ≤ 100 |  | Cn1ccc(=O)n1Cc1ccc(-c2cccc(C3CCC(=O)NC3=O)c2Cl)cc1 (stereo not shown) [Compound 158, 3-(2-chloro-4′-((2-methyl-5-oxo-2,5-dihydro-1H-pyrazol-1-yl)methyl)-[1,1′-biphenyl]-3-yl)piperidine-2,6-dione]
17 | 96 | > 90 | 14.8 | ≤ 100 |  | O=C1CCC(c2cccc(-c3ccc(Cc4cnccn4)cc3)c2Cl)C(=O)N1 (stereo not shown) [Compound 159, 3-(2-chloro-4′-(pyrazin-2-ylmethyl)-[1,1′-biphenyl]-3-yl)piperidine-2,6-dione]
18 | 94.5 | > 90 | 18.5 | ≤ 100 |  | Cn1ccc(OCc2ccc(-c3cccc(C4CCC(=O)NC4=O)c3Cl)cc2)n1 (stereo not shown) [Compound 160, 3-(2-chloro-4′-(((1-methyl-1H-pyrazol-3-yl)oxy)methyl)-[1,1′-biphenyl]-3-yl)piperidine-2,6-dione]
19 | 95.4 | > 90 | 10.1 | ≤ 100 |  | O=C1CCC(c2cccc(-c3ccc(N4CCCCC4=O)cc3)c2Cl)C(=O)N1 (stereo not shown) [Compound 161, 3-(2-chloro-4′-(2-oxopiperidin-1-yl)-[1,1′-biphenyl]-3-yl)piperidine-2,6-dione]
20 | 73.1 | 60 to 90 | 283 | 100 to 1000 |  | O=C1CCC(c2cccc(-c3ccc(N4CCCC4=O)cc3)c2Cl)C(=O)N1 (stereo not shown) [Compound 162, 3-(2-chloro-4′-(2-oxopyrrolidin-1-yl)-[1,1′-biphenyl]-3-yl)piperidine-2,6-dione]
21 | 44.7 | < 60 | ≥ 10000 | > 1000 |  | O=C1CCC(c2cccc(-c3ccc(N4CCC4=O)cc3)c2Cl)C(=O)N1 (stereo not shown) [Compound 163, 3-(2-chloro-4′-(2-oxoazetidin-1-yl)-[1,1′-biphenyl]-3-yl)piperidine-2,6-dione]
22 | 71.9 | 60 to 90 | 542 | 100 to 1000 |  | Cn1ccc(-c2ccc(-c3cccc(C4CCC(=O)NC4=O)c3Cl)cc2)n1 (stereo not shown) [Compound 164, 3-(2-chloro-4′-(1-methyl-1H-pyrazol-3-yl)-[1,1′-biphenyl]-3-yl)piperidine-2,6-dione]
23 | 90.2 | > 90 | 47.7 | ≤ 100 |  | CC(Oc1ccccn1)c1ccc(-c2cccc(C3CCC(=O)NC3=O)c2Cl)cc1 (stereo not shown) [Compound 165, 3-(2-chloro-4′-(1-(pyridin-2-yloxy)ethyl)-[1,1′-biphenyl]-3-yl)piperidine-2,6-dione]
24 | 61.5 | 60 to 90 | 517 | 100 to 1000 |  | O=C1CCC(c2cccc(-c3ccc(N4CCC(Cn5ccccc5=O)CC4)cc3)c2Cl)C(=O)N1 (stereo not shown) [Compound 166, 3-(2-chloro-4′-(4-((2-oxopyridin-1(2H)-yl)methyl)piperidin-1-yl)-[1,1′-biphenyl]-3-yl)piperidine-2,6-dione]
25 | 87.3 | 60 to 90 | 38.5 | ≤ 100 |  | O=C1CCC(c2cccc(-c3ccc(OCc4c[nH]cn4)cc3)c2Cl)C(=O)N1 (stereo not shown) [Compound 167, 3-(4′-((1H-imidazol-4-yl)methoxy)-2-chloro-[1,1′-biphenyl]-3-yl)piperidine-2,6-dione]
26 | 91.5 | > 90 | 18.8 | ≤ 100 |  | O=C1CCC(c2cccc(-c3ccc(CN4CCCCC4=O)cc3)c2Cl)C(=O)N1 (stereo not shown) [Compound 168, 3-(2-chloro-4′-((2-oxopiperidin-1-yl)methyl)-[1,1′-biphenyl]-3-yl)piperidine-2,6-dione]
27 | 98 | > 90 | 5.59 | ≤ 100 |  | O=C1CCC(c2cccc(-c3ccc(Cc4ccccn4)cc3)c2Cl)C(=O)N1 (stereo not shown) [Compound 169, 3-(2-chloro-4′-(pyridin-2-ylmethyl)-[1,1′-biphenyl]-3-yl)piperidine-2,6-dione]
